Measurements published in patent US11779555B2, “Combination of immunotherapy with local chemotherapy for the treatment of malignancies” (THE JOHNS HOPKINS UNIVERSITY, priority 2015, dated 2023).

Assays:
[1] = tested on: intracranial GL-261 LUC gliomas; assay: Survival of mice with intracranial GL-261 gliomas; format: in vivo, C57BL/6J mice; conditions: Example 3; chemotherapy at day 14, post anti-PD1
Description: Tumor model: Female C57BL/6J mice (The Jackson Laboratory, Bar Harbor, Me.), 6 to 8 weeks old, were implanted (Day 0) with GL-261 LUC cells to establish intracranial gliomas, as previously described (Zeng et al., 2013). Briefly, mice were anesthetized with ketamine/xylazine (100 mg/kg ketamine, 10 mg/kg xylazine) and a small midline incision was made to expose the skull. A burr hole was then drilled directly over the striatum and 130,000 GL-261 LUC cells were implanted at a depth of 3 mm from the cortical surface. The tumor take rate was 100%. Day 7 post implantation, mice were imaged to assess the progress of tumor growth using an IVIS platform (In Vivo Imaging System, Caliper Life Sciences, Hopkinton, Mass.). Mice were then stratified into experimental treatment groups based on luminescence. Each treatment group had 5 to 15 mice in the survival experiments. […]
Surgical procedure: polymer implantation: Mice in the LC or EP treatment groups were anesthetized with ketamine/xylazine (100 mg/kg ketamine, 10 mg/kg xylazine). […] Mice were monitored for a period of 30 min after recovery for signs of neurological deficits. […]
Statistics: Survival was plotted using Kaplan-Meier curves, and curves were analyzed with the log-rank Mantel-Cox test using GraphPad Prism software (GraphPad Software, La Jolla, Calif.). […]

[2] = tested on: tumor infiltrating lymphocytes; assay: Flow cytometric analysis of tumor infiltrating lymphocytes (TILs)
From the text: (§1) Flow cytometric analysis of tumor infiltrating immune cells and peripheral lymphoid cell populations: At day 21 or day 30 post tumor implantation, mice were sacrificed using a lethal dose of ketamine/xylazine cocktail. The spleen, brain, cervical lymph nodes (LN), and bone marrow were harvested and passed through a 40-μm strainer. A 30%-37%-60% Percoll gradient (GE Healthcare, Buckinghamshire, UK) was used to isolate immune cell populations from brain tumors and the draining LNs. After centrifugation, the 37%-60% interface contained lymphocytes, monocytes, and microglia in the case of brain tumors, and lymphocytes and monocytes in the case of draining LNs.
(§2) Lymphocytes from all tissues were stimulated with PMA-Ionomycin and Golgi stop (eBioscience) for 4-6 hours in a 37° C. humidified incubator maintained at 5% CO2. […] For the memory T cells, lymphocytes were stained with CD62L PE (BD Biosciences) and CD44 BV421 (BD Biosciences). […] Appropriate isotype controls were used. For the adoptive transfer experiment, CD45.2 PE Clone: 104 (eBioscience) was used to stain the isolated lymphocytes.

CD3+ blood lymphocytes = assay: Circulating CD3+ lymphocytes in peripheral blood (serial blood draws); format: in vivo, C57BL/6J mice; conditions: Day 30 post implantation, end of regimen, lasting at least 2 weeks
Description: Peripheral blood was collected by cardiac puncture before harvesting other tissues at day 21 and 30. A total of 600 μL was collected from each mouse in heparin-coated tubes (BD Biosciences, Franklin Lakes, N.J.). Blood was mixed with PBS in a 1:1 ratio and overlaid onto a Ficoll-Paque Plus (GE Healthcare) base in a 1:3 ratio. After centrifugation, peripheral lymphocytes were extracted from the resulting horizon and were washed twice with PBS. In addition to the blood draws performed on days 21 or 30 post implantation, blood draws were also performed on days 26 and 41 post implantation. On these days, blood was taken via tail vein sampling and 100 μL of blood was collected for every mouse. Red blood cells were lysed using RBC Lysis Buffer (eBioscience) and subsequently stained with CD3 FITC Clone: 17A2 (eBioscience). All flow cytometry experiments were performed on a LSRII (BD Biosciences) and analysis was performed using FlowJo software (TreeStar, Ashland, Oreg.).

[3] = tested on: lymphocytes of draining lymph nodes, spleen and blood; assay: Flow cytometric analysis of draining lymph nodes and peripheral lymphoid organs
From the text: as §1, with “Flow cytometric analysis of tumor infiltrating immune cells and peripheral lymphoid cell populations: At day 21 or day 30 post tumor implantation, mice were sacrificed using a lethal dose of ketamine/xylazine cocktail.” left out
as §2

bone marrow cells = assay: Bone marrow cellularity and CD45+ leukocytes; format: in vivo, C57BL/6J mice
From the text: (§3) Appropriate isotype controls were used.

[4] = tested on: adoptively transferred ova specific (CD45.2) T cells; assay: Adoptive transfer of OT-I lymphocytes in GL-261 ova tumor bearing mice; format: in vivo; conditions: four days after adoptive transfer, three days after initiation of chemotherapy
From the text: Adoptive transfer experiments: For the adoptive transfer experiments, 5 week old female B6.SJL-Ptprca Pepcb/BoyJ mice expressing the congenic marker CD45.1 were used as the recipient mice. Inbred C57BL6/J (B6), B6.129S7-Rag1tm1Mom/J (RAG^−/−), B6.SJL-Ptprcb Pepcb/BoyJ (CD45.2) and C57BL/6-Tg(TcraTcrb)1100Mjb/J (OT-I) mice were purchased from The Jackson Laboratory. 6-8 weeks old female RAG−/− OT-I CD45.2 transgenic mice were used as the donor mice.
RAG−/− OT-I CD45.2 mice were lethally anesthetized and their spleens were harvested and passed through a 40-μM nylon mesh. Red blood cell lysis buffer was consecutively applied to remove red blood cells. Cells were counted, checked for their viability, and washed twice with PBS. Two million cells were transferred in 100 uL of PBS for every recipient mouse via retro-orbital injection.
Mice were implanted with 300,000 Gl-261-ova-luc cells at day 0 and RAG−/− OT-I CD45.2 lymphocytes were transferred at day 13: 1 day before starting treatment with chemotherapy. The experimental schedule of the GL-261-ova tumor experiments is explained in detail in FIG. 1.
as §3

OT-I T cells = assay: In vivo proliferation of adoptively transferred OT-I T cells in the spleen; set-up: species or system mice; conditions: three days after the transfer
Description: For in vivo cell proliferation tracing, OT-I RAG−/− splenocytes were labeled with cell proliferation dye eFluor450 (eBioscience, San Diego, Calif.) in the following way: Lymphocytes were isolated from spleen cells, their viability was checked post-isolation, and viable lymphocytes were washed with HBSS without Ca^2+ or Mg^2+ once in preparation for the staining. A 10 μM solution of the cell proliferation dye was made in HBSS without Ca^2+ and Mg^2+. After washing the isolated cells, the cells were reconstituted by adding the 10 μM dye solution to a concentration of 5×10^6 cells/mL. While the solution was added to the cells, the tube was gently vortexed to ensure homogeneous uptake of the dye by all cells.
The cells were incubated for 8 min in the dark at room temperature. Cells were quenched with 20 mls of HBSS with 20% FBS and were then spun at 1400 rpm for 5 min at 4° C. Cells were washed with HBSS without FBS an additional two times and cells were checked for viability. Cells were resuspended with HBSS (w/o FBS) to a concentration of 10×10^6 cells/mL. The cells were passed through a […] cell strainer to ensure they were in a single cell suspension and 100 μL of the cell suspension was injected retro-orbitally in the recipient mice immediately.

[5] = tested on: GL-261 LUC cells in the contralateral hemisphere; assay: Tumor re-challenge of long-term survivors; format: in vivo, mice
Description: Re-challenge experiments: Tumor burden was assessed weekly with IVIS imaging. Mice were considered “cured” of their brain tumors following initial treatment if no evidence of tumor was present at consecutive IVIS imaging sessions, and mice were further considered long-term survivors if no tumor was detected 90 days post implantation. […] Cells were prepared in 14 of PBS. Naïve mice were implanted in parallel as controls, and mice were followed with weekly IVIS imaging.

effector memory T cells = assay: IFNγ production of memory T cells after re-challenge; format: in vivo, mice; conditions: twenty days after re-challenge, PMA/Ionomycin stimulation
Description: as §3
Re-challenge experiments: Tumor burden was assessed weekly with IVIS imaging. Mice were considered “cured” of their brain tumors following initial treatment if no evidence of tumor was present at consecutive IVIS imaging sessions, and mice were further considered long-term survivors if no tumor was detected 90 days post implantation. Long-term survivors from each experimental group were re-challenged 90 days post implantation with 300,000 GL-261 LUC cells injected intracranially in the contralateral hemisphere. Cells were prepared in […]. Naïve mice were implanted in parallel as controls, and mice were followed with weekly IVIS imaging.

O=NN(CCCl)C(=O)NCCCl [i.p. BCNU, BCNU]
median survival [1]: 45 days | percent of CD4+FoxP3+ regulatory cells (Tregs) in TILs ([2]; day 21): 55% | percentage of recovered CD8+ TILs producing IFNγ ([2]; day 21): 35% | density of CD3+ TILs (number of cells normalized by tumor volume) ([2]; day 30 post implantation): 40 cells | CD3+ lymphocytes in peripheral blood (CD3+ blood lymphocytes): severely lymphodepleted | CD3+ cells and CD8+ IFN-γ+ cells in draining lymph nodes ([3]; Example 3): lymphodepletion of both CD3+ cells and CD8+ IFN-γ+ cells | lymphocytes recovered from spleen, LN and blood vs untreated or LC treated mice ([3]; cured mice, 4 months from tumor implantation): decreased number of recovered lymphocytes | myelotoxicity (BM cellularity and CD45 leukocytes vs control) (bone marrow cells; Example 2): late myelotoxicity | CD45+ bone marrow cells (leukocytes) vs control, LC or LC+anti-PD1 (bone marrow cells; Example 3): decreased cell numbers | bone marrow cellularity (live-dead staining) (bone marrow cells; Example 3): significant decrease in cellularity | CD3+CD45.2+ cells within the tumor microenvironment [4]: 4% | CD3+CD45.2+ transferred cells in the DLNs [4]: 3% | OT-I cells divided (dilution of cell proliferation dye) (OT-I T cells): 29.9% | size of the spleen at necropsy vs LC and anti-PD1 treated mice ([5]; experimental day 104): significantly decreased | tumor growth after re-challenge in the contralateral hemisphere ([5]; long term survivors): not able to inhibit tumor growth | IFNγ production of CD8+CD44[high]CD62L[low] cells from DLNs, spleen or peripheral blood (effector memory T cells): dysfunctional IFNγ production
